In publication PMC7951137 (ACS chemical neuroscience, 2021):
Where two headings read alike, the source gives them in different places. One block for each molecule: values may come before it. [ ]: non-standard residue; d: D form.

Assays:
D189Q hMC4R [1] = target: T1, D189Q hMC4R (Homo sapiens, UniProt P32245, D189Q); assay: cAMP AlphaScreen agonist / inverse agonist assay; assay type: cell-based; conditions: for Inverse agonist percent decrease from basal activity: D189Q hMC4R
D189N hMC4R = D189N hMC4R (Homo sapiens, UniProt P32245, D189N); assay: cAMP AlphaScreen agonist / inverse agonist assay; assay type: cell-based; conditions: for Inverse agonist percent decrease from basal activity: D189N hMC4R
wildtype hMC4R [2] = target: T2, wildtype hMC4R (Homo sapiens, UniProt P32245); assay: cAMP AlphaScreen agonist / inverse agonist assay; assay type: cell-based; conditions: WT hMC4R; basal = signal at 10^−12 M
wildtype hMC4R [3] = target: T2, wildtype hMC4R; assay: cAMP AlphaScreen antagonist assay; assay type: cell-based
D189E hMC4R = D189E hMC4R (Homo sapiens, UniProt P32245, D189E); assay: cAMP AlphaScreen agonist / inverse agonist assay; assay type: cell-based; conditions: for Inverse agonist percent decrease from basal activity: D189E hMC4R
D189A hMC4R = D189A hMC4R (Homo sapiens, UniProt P32245, D189A); assay: cAMP AlphaScreen antagonist assay; assay type: cell-based
D189Q hMC4R [4] = target: T1, D189Q hMC4R; assay: cAMP AlphaScreen antagonist assay; assay type: cell-based
D189K hMC4R = D189K hMC4R (Homo sapiens, UniProt P32245, D189K); assay: cAMP AlphaScreen antagonist assay; assay type: cell-based
D189S hMC4R = D189S hMC4R (Homo sapiens, UniProt P32245, D189S); assay: cAMP AlphaScreen agonist / inverse agonist assay; assay type: cell-based; conditions: for Inverse agonist percent decrease from basal activity: D189S hMC4R
mMC4R = conditions: cited from earlier work
[5] = target: T3, human melanocortin-4 receptor (hMC4R), wild type, N-terminal FLAG-tagged (human, UniProt P32245 1-332); assay: radioligand binding
[6] = target: T3, human melanocortin-4 receptor (hMC4R), …; assay: radioligand binding; remark: listed apart in the source
[7] = target: T4, D189S mutant hMC4R, N-terminal FLAG-tagged (human, UniProt P32245 1-332, D189S); assay: cell-based or functional assay
[8] = target: T5, D189K mutant hMC4R, N-terminal FLAG-tagged (human, UniProt P32245 1-332, D189K); assay: cell-based or functional assay
[9] = target: T6, D189Q mutant hMC4R, N-terminal FLAG-tagged (human, UniProt P32245 1-332, D189Q); assay: cell-based or functional assay
[10] = target: T7, D189A mutant hMC4R, N-terminal FLAG-tagged (human, UniProt P32245 1-332, D189A); assay: cell-based or functional assay
[11] = target: T8, D189N mutant hMC4R, N-terminal FLAG-tagged (human, UniProt P32245 1-332, D189N); assay: cell-based or functional assay
[12] = target: T9, D189E mutant hMC4R, N-terminal FLAG-tagged (human, UniProt P32245 1-332, D189E); assay: cell-based or functional assay
[13] = target: T4, D189S mutant hMC4R, N-terminal …; assay: radioligand binding
[14] = target: T5, D189K mutant hMC4R, N-terminal …; assay: radioligand binding
[15] = target: T6, D189Q mutant hMC4R, N-terminal …; assay: radioligand binding
[16] = target: T3, human melanocortin-4 receptor (hMC4R), …; assay: radioligand binding; remark: listed apart in the source
[17] = target: T7, D189A mutant hMC4R, N-terminal …; assay: radioligand binding
[18] = target: T8, D189N mutant hMC4R, N-terminal …; assay: radioligand binding
[19] = target: T9, D189E mutant hMC4R, N-terminal …; assay: radioligand binding
[20] = target: T3, human melanocortin-4 receptor (hMC4R), …; assay: cell-based or functional assay

D189N hMC4R, sequence (P32245 whole entry D189N): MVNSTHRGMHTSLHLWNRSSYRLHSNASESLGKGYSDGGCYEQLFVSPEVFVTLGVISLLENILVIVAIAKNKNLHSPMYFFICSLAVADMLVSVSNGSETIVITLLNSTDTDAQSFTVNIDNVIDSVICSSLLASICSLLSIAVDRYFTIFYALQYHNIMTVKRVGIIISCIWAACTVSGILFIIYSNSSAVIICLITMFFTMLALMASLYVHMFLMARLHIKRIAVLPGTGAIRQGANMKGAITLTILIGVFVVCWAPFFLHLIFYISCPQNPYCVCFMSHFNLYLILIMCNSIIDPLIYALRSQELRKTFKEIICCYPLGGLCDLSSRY
T3 sequence (P32245 whole entry): as the sequence (P32245 whole entry D189N) above, with N189D counted along it
T2 sequence (P32245 whole entry): as the sequence (P32245 whole entry D189N) above, with N189D counted along it
D189A hMC4R, sequence (P32245 whole entry D189A): as the sequence (P32245 whole entry D189N) above, with N189A counted along it
D189E hMC4R, sequence (P32245 whole entry D189E): as the sequence (P32245 whole entry D189N) above, with N189E counted along it
D189S hMC4R, sequence (P32245 whole entry D189S): as the sequence (P32245 whole entry D189N) above, with N189S counted along it
T1 sequence (P32245 whole entry D189Q): as the sequence (P32245 whole entry D189N) above, with N189Q counted along it
D189K hMC4R, sequence (P32245 whole entry D189K): as the sequence (P32245 whole entry D189N) above, with N189K counted along it
T8 sequence (P32245 whole entry D189N): as the sequence (P32245 whole entry D189N) above
T7 sequence (P32245 whole entry D189A): as the sequence (P32245 whole entry D189N) above, with N189A counted along it
T9 sequence (P32245 whole entry D189E): as the sequence (P32245 whole entry D189N) above, with N189E counted along it
T4 sequence (P32245 whole entry D189S): as the sequence (P32245 whole entry D189N) above, with N189S counted along it
T6 sequence (P32245 whole entry D189Q): as the sequence (P32245 whole entry D189N) above, with N189Q counted along it
T5 sequence (P32245 whole entry D189K): as the sequence (P32245 whole entry D189N) above, with N189K counted along it

Molecule: C[C@@H]1NC(=O)[C@H](CO)NC(=O)[C@H](Cc2ccccc2)NC(=O)[C@H](Cc2ccccc2)NC(=O)[C@H](CCCNC(=N)N)NC(=O)[C@@H]2CCCN2C(=O)[C@H]2CCCN2C(=O)[C@H](Cc2ccccc2)NC1=O [MDE3–85c, c[Pro-Arg-Phe-Phe-Ser-Ala-Phe-DPro]]
- Inverse agonist percent decrease from basal activity (D189Q hMC4R [1]): −35%
- EC50 (D189N hMC4R): 100 ± 40 nM
- Inverse agonist percent decrease from basal activity (D189N hMC4R): −20%
- Inverse agonist percent decrease from basal signal (wildtype hMC4R [2]): −25%
- Kb (wildtype hMC4R [3]): 10 nM
- EC50 (D189E hMC4R): 11 ± 4 nM
- Inverse agonist percent decrease from basal activity (D189E hMC4R): −25%
- Kb (D189A hMC4R): 1000 nM
- Kb (D189Q hMC4R [4]): 158 nM
- Kb (D189K hMC4R): 501 nM
- EC50 (D189S hMC4R): 600 ± 400 nM
- Inverse agonist percent decrease from basal activity (D189S hMC4R): −25%

Molecule: CC[C@@H]1NC(=O)[C@H](Cc2ccccc2)NC(=O)[C@H](Cc2ccccc2)NC(=O)[C@H](CCCNC(=N)N)NC(=O)[C@@H]2CCCN2C(=O)[C@H]2CCCN2C(=O)[C@H](Cc2ccccc2)NC(=O)[C@H](C)NC1=O [MDE3–119-2c, c[Pro-Arg-Phe-Phe-Abu-Ala-Phe-DPro]]
- Inverse agonist percent decrease from basal signal (wildtype hMC4R [2]): −15%

Molecule: C[C@@H]1NC(=O)[C@H](CCC(=O)O)NC(=O)[C@H](Cc2ccccc2)NC(=O)[C@H](Cc2ccccc2)NC(=O)[C@H](CCCNC(=N)N)NC(=O)[C@@H]2CCCN2C(=O)[C@H]2CCCN2C(=O)[C@H](Cc2ccccc2)NC1=O [MDE3–119-5c, c[Pro-Arg-Phe-Phe-Glu-Ala-Phe-DPro]]
- EC50 (D189Q hMC4R [1]): 7000 nM
- Inverse agonist percent decrease from basal activity (D189Q hMC4R [1]): −40%
- EC50 (D189N hMC4R): 3000 nM
- Inverse agonist percent decrease from basal activity (D189N hMC4R): −5%
- Inverse agonist percent decrease from basal signal (wildtype hMC4R [2]): −35%
- Kb (wildtype hMC4R [3]): 100 nM
- EC50 (D189E hMC4R): 1100 nM
- Inverse agonist percent decrease from basal activity (D189E hMC4R): −40%
- Kb (D189A hMC4R): > 3160 nM
- Kb (D189Q hMC4R [4]): 2000 nM
- Kb (D189K hMC4R): > 3160 nM

Molecule: C[C@@H]1NC(=O)[C@@H](CN)NC(=O)[C@H](Cc2ccccc2)NC(=O)[C@H](Cc2ccccc2)NC(=O)[C@H](CCCNC(=N)N)NC(=O)[C@@H]2CCCN2C(=O)[C@H]2CCCN2C(=O)[C@H](Cc2ccccc2)NC1=O [MDE3–119-7c, c[Pro-Arg-Phe-Phe-DDap-Ala-Phe-DPro]]
- Inverse agonist percent decrease from basal activity (D189Q hMC4R [1]): −40%
- Inverse agonist percent decrease from basal activity (D189N hMC4R): −15%
- Inverse agonist percent decrease from basal signal (wildtype hMC4R [2]): −30%
- Inverse agonist percent decrease from basal activity (D189E hMC4R): −35%
- Inverse agonist percent decrease from basal activity (D189S hMC4R): −30%

Molecule: C[C@@H]1NC(=O)[C@H](CN)NC(=O)[C@H](Cc2ccccc2)NC(=O)[C@H](Cc2ccccc2)NC(=O)[C@H](CCCNC(=N)N)NC(=O)[C@@H]2CCCN2C(=O)[C@H]2CCCN2C(=O)[C@H](Cc2ccccc2)NC1=O [MDE3–119-8c, c[Pro-Arg-Phe-Phe-Dap-Ala-Phe-DPro]]
- Inverse agonist percent decrease from basal activity (D189Q hMC4R [1]): −45%
- Inverse agonist percent decrease from basal activity (D189N hMC4R): −15%
- Inverse agonist percent decrease from basal signal (wildtype hMC4R [2]): −50%
- Inverse agonist percent decrease from basal activity (D189E hMC4R): −55%
- Inverse agonist percent decrease from basal activity (D189S hMC4R): −35%

Molecule: C[C@@H]1NC(=O)[C@H](C)NC(=O)[C@H](Cc2ccccc2)NC(=O)[C@H](Cc2ccccc2)NC(=O)[C@H](CCCNC(=N)N)NC(=O)[C@@H]2CCCN2C(=O)[C@H]2CCCN2C(=O)[C@H](Cc2ccccc2)NC1=O [MDE3–154c, c[Pro-Arg-Phe-Phe-Ala-Ala-Phe-DPro]]
- Inverse agonist percent decrease from basal activity (D189Q hMC4R [1]): −25%
- Inverse agonist percent decrease from basal signal (wildtype hMC4R [2]): −35%
- EC50 (D189E hMC4R): 16 ± 2 nM
- Inverse agonist percent decrease from basal activity (D189E hMC4R): −25%
- Kb (D189A hMC4R): 2510 nM
- Kb (D189Q hMC4R [4]): 251 nM
- Kb (D189K hMC4R): 794 nM

Molecule: C[C@@H]1NC(=O)[C@H](CC(N)=O)NC(=O)[C@H](Cc2ccccc2)NC(=O)[C@H](Cc2ccccc2)NC(=O)[C@H](CCCNC(=N)N)NC(=O)[C@@H]2CCCN2C(=O)[C@H]2CCCN2C(=O)[C@H](Cc2ccccc2)NC1=O [MDE5–108-10c, c[Pro-Arg-Phe-Phe-Asn-Ala-Phe-DPro]]
- Inverse agonist percent decrease from basal activity (D189Q hMC4R [1]): −45%
- Inverse agonist percent decrease from basal activity (D189N hMC4R): −20%
- Inverse agonist percent decrease from basal signal (wildtype hMC4R [2]): −30%
- Inverse agonist percent decrease from basal activity (D189E hMC4R): −25%
- Inverse agonist percent decrease from basal activity (D189S hMC4R): −20%

Molecule: c[Pro-Arg-Phe-Phe-His-Ala-Phe-DPro] [MDE3–119-13c]
- Inverse agonist percent decrease from basal activity (D189Q hMC4R [1]): −30%
- Inverse agonist percent decrease from basal signal (wildtype hMC4R [2]): −30%
- Inverse agonist percent decrease from basal activity (D189E hMC4R): −15%

- Decrease in antagonist potency relative to MDE3–119-8c (wildtype hMC4R [3]; hMC4R): 80 fold
Molecule: c[Pro-Arg-Phe-Phe-Phe-Ala-Phe-DPro] [MDE3–119-14c]
- Previously decreased antagonist potency (comparator not restated) (mMC4R): 50–100 fold

- IC50 [5]: 3600 nM
- IC50 [6]: 1300 nM
Molecule: cyclo(PRFFDAF[dP]) [MDE3–119-4c]

- IC50 [5]: 2500 nM
- IC50 [6]: 1400 nM
Molecule: cyclo(PRFFEAF[dP]) [MDE3–119-5c]

- pA2, antagonism of NDP-MSH (Schild analysis), cAMP AlphaScreen, HEK293 cells [7]: 8.2
- pA2, antagonism of NDP-MSH (Schild analysis), cAMP AlphaScreen, HEK293 cells [8]: 7.2
- pA2, antagonism of NDP-MSH (Schild analysis), cAMP AlphaScreen, HEK293 cells [9]: 8.1
- pA2, antagonism of NDP-MSH (Schild analysis), cAMP AlphaScreen, HEK293 cells [10]: 6.9
- pA2, antagonism of NDP-MSH (Schild analysis), cAMP AlphaScreen, HEK293 cells [11]: 8.4
- pA2, antagonism of NDP-MSH (Schild analysis), cAMP AlphaScreen, HEK293 cells [12]: 8.8
- IC50 [13]: 12.5 nM
- IC50 [14]: 150 nM
- IC50 [15]: 10 nM
- IC50 [16]: 12 nM
- IC50 [17]: > 1000 nM
- IC50 [18]: 10.5 nM
- IC50 [19]: 6 nM
- pA2, antagonism of NDP-MSH (Schild analysis), cAMP AlphaScreen, HEK293 cells [20]: 8.8
- IC50 [6]: 12 nM
Molecule: RCVRLHESCLGQQVPCCDPCATCYCRFFNAFCYCRKLGTAMNPCSRT (domain or fragment, UniProt O00253 86-132, looked up) [human agouti-related protein hAGRP(86–132)]
